The numbers were not newly measured in patent US11478522B2, “Synergistic herbal compositions with prebiotic properties for treatment of acne” (KAMEDIS LTD., priority 2016, dated 2022), which cites them from elsewhere.

The target in data set [1] is NLRP3 inflammasome (Homo sapiens, UniProt Q96P20).
Data set [2] concerns the target enzyme 11β-HSD1 (Homo sapiens, UniProt P28845).

Chain of enzyme 11β-HSD1 (P28845 whole entry, species assumed): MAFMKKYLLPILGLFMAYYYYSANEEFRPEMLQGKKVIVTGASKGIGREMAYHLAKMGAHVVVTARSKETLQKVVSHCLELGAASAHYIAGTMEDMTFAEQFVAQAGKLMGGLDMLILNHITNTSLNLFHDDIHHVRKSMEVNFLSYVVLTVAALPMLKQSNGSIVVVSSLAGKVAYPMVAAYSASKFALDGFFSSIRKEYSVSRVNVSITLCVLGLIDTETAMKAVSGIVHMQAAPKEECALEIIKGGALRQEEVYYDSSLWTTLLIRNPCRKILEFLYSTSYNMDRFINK
Chain of NLRP3 inflammasome (Q96P20 whole entry): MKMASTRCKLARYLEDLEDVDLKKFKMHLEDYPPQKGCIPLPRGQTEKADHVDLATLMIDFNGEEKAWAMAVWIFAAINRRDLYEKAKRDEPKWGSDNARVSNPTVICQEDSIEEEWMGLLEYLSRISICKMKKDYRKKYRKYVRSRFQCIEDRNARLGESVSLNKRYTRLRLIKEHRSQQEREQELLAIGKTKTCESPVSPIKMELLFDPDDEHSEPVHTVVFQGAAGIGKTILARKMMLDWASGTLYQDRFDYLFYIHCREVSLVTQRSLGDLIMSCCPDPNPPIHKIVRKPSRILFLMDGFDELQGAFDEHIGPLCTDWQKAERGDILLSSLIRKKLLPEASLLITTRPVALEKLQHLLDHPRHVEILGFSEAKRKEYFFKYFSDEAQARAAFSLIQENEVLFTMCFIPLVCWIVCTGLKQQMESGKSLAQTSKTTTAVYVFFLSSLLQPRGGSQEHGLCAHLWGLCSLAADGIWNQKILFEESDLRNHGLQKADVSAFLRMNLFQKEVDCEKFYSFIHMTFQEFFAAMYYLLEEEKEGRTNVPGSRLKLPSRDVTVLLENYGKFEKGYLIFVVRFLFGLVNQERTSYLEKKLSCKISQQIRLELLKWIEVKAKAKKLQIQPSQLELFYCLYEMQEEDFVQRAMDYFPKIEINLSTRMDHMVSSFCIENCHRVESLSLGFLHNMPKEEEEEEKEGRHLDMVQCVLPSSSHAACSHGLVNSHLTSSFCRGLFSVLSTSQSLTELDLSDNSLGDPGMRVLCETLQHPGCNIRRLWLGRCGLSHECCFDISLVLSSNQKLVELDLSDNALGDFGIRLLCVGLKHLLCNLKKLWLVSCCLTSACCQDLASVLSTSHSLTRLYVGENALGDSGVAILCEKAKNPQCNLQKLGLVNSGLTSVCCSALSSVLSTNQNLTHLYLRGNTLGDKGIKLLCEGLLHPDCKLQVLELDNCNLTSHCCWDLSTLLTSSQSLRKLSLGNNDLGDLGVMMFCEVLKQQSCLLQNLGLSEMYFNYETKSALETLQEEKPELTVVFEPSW

Regarding `Cc1cc(O)c2c(c1)C(=O)c1cc(O)cc(O)c1C2=O` [emodin], the NLRP3 inflammasome activation entry in data set [1] is “attenuate NLRP3 inflammasome activation”. Further, the “inhibition of the enzyme 11β-HSD1” value in data set [2] was “effective and selective as inhibitors”.
